In brackets after ≈: the same amount, converted by molar mass.
Experiments:
[1] = test system: Mycobacterium tuberculosis; assay: microbe, parasite or virus in culture; conditions: H37Rv, 168 h
Description: Antimycobacterial activity against Mycobacterium tuberculosis H37Rv assessed as inhibition of bacterial growth measured after 7 days by microplate alamar blue assay

[2] = test system: Vero; assay: Cytotoxicity against African green monkey vero cells assessed as reduction in cell viability measured after 48 hrs by MTT assay; type: functional, cell-based; conditions: Chlorocebus sabaeus
[3] = in vitro; conditions: monkey, Vero cells
Description: Selectivity index, ratio of IC50 for African green monkey vero cells to MIC for Mycobacterium tuberculosis H37Rv

[4] = Metabolic stability in mouse liver microsomes at 0.5 uM measured after 15 to 120 mins in absence of NADPH by LC-MS/MS analysis; type: ADME, Microsome; conditions: time 15-120 min
[5] = Metabolic stability in mouse liver microsomes at 0.5 uM measured after 15 to 120 mins in presence of NADPH by LC-MS/MS analysis; type: ADME, Microsome; conditions: time 15-120 min
[6] = test system: Mycobacterium tuberculosis; assay: Antimycobacterial activity against Mycobacterium tuberculosis mc2 6206 assessed as decrease in mycolic acid transfer to cell wall arabinogalactan measured after 16 hrs using [14C]acetate by TLC analysis; type: functional, organism-based; conditions: dose 0.0625-1 µg/ml, DDE = dose-dependent effect
[7] = test system: Mycobacterium tuberculosis; assay: microbe, parasite or virus in culture; conditions: H37Rv mc2 6206, 16 h
Description: Antimycobacterial activity against Mycobacterium tuberculosis H37Rv mc2 6206 assessed as reduction in bacterial growth measured after 16 hrs by TLC analysis

[8] = test system: Mycolicibacterium smegmatis; assay: Antimycobacterial activity against Mycobacterium smegmatis harboring MsmgdeltammpL3/pMVGHI-mmpL3tb G253E mutant assessed as reduction in bacterial growth measured after 16 hrs […]; type: functional
[9] = test system: Mycobacterium tuberculosis; assay: Antimycobacterial activity against Mycobacterium tuberculosis mc2 6206 assessed as decrease in trehalose dimycolate measured after 16 hrs using [14C]acetate by TLC analysis; type: functional, organism-based; conditions: DDE = dose-dependent effect
[10] = test system: Mycolicibacterium smegmatis; assay: Antimycobacterial activity against Mycobacterium smegmatis harboring MsmgdeltammpL3/pMVGHI-mmpL3tb mutant assessed as reduction in bacterial growth measured after 16 hrs […]; type: functional

| SMILES | MIC90 [1] [µg/mL] | IC50 [2] [µg/mL] | other results |
| --- | --- | --- | --- |
| COc1ncc(-c2c[nH]c(C(=O)NC3C4CC5CC(C4)CC3C5)c2)cn1 (stereo unspecified) | 3.8 (≈ 10.8 µM) | – | – |
| O=C(NC1CCCCCCC1)c1cc(-c2ccncc2F)c[nH]1 | 0.06 (≈ 0.19 µM) | – | – |
| O=C(NC1C2CC3CC(C2)CC1C3)c1cc(-c2ccc(Cl)nc2Cl)c[nH]1 (stereo unspecified) | 0.24 (≈ 0.615 µM) | > 64 | – |
| O=C(c1cc(-c2ccc(Cl)cc2Cl)c[nH]1)N1CCCC1 | 9.8 (≈ 31.7 µM) | – | – |
| O=C(NC1C2CC3CC(C2)CC1C3)c1cc(-c2ccc(O)cc2F)c[nH]1 (stereo unspecified) | > 32 | – | – |
| O=C(NC1C2CC3CC(C2)CC1C3)c1cc(-c2cncnc2)c[nH]1 (stereo unspecified) | 0.96 (≈ 2.98 µM) | – | – |
| O=C(NC1CCCCCCC1)c1cc(-c2ccc(Cl)cc2)c[nH]1 | 0.24 (≈ 0.725 µM) | – | – |
| COc1ccc(-c2c[nH]c(C(=O)NC3C4CC5CC(C4)CC3C5)c2)c(OC)c1 (stereo unspecified) | 0.24 (≈ 0.631 µM) | > 64 | – |
| O=C(NC1C2CC3CC(C2)CC1C3)c1cc(-c2cccnc2)c[nH]1 (stereo unspecified) | 0.04 (≈ 0.124 µM) | 39.5 (≈ 123 µM) | selectivity ratio [3]: 988 |
| COc1ccc(-c2c[nH]c(C(=O)NC3C4CC5CC(C4)CC3C5)c2)cn1 (stereo unspecified) | 0.25 (≈ 0.711 µM) | – | selectivity ratio [3]: 137 |
| O=C(NC1C2CC3CC(C2)CC1C3)c1cc(-c2ccncc2F)c[nH]1 (stereo unspecified) | 0.11 (≈ 0.324 µM) | – | selectivity ratio [3]: 415 |
| Cn1cc(-c2ccc(Cl)cc2Cl)cc1C(=O)NC1C2CC3CC(C2)CC1C3 (stereo unspecified) | 3.7 (≈ 9.17 µM) | – | – |
| O=C(NC12CC3CC(CC(C3)C1)C2)c1cc(-c2ccc(Cl)cc2Cl)c[nH]1 | 0.058 (≈ 0.149 µM) | – | – |
| CC1(C)CCC(NC(=O)c2cc(-c3ccc(Cl)cc3Cl)c[nH]2)CC1 | 0.5 (≈ 1.37 µM) | – | – |
| O=C(NC1CCCCCC1)c1cc(-c2ccc(Cl)cc2Cl)c[nH]1 | 1.9 (≈ 5.41 µM) | – | – |
| COc1cnccc1-c1c[nH]c(C(=O)NC2C3CC4CC(C3)CC2C4)c1 (stereo unspecified) | 0.24 (≈ 0.683 µM) | 58.8 (≈ 167 µM) | selectivity ratio [3]: 245 |
| O=C(NC12CC3CC(CC(C3)C1)C2)c1cc(-c2ccc(F)cc2)c[nH]1 | < 0.016 | – | – |
| Cc1nc(F)ccc1-c1c[nH]c(C(=O)NC2C3CC4CC(C3)CC2C4)c1 (stereo unspecified) | 0.062 (≈ 0.175 µM) | 27.7 (≈ 78.4 µM) | Stability [4]: Stable; Stability [5]: 32.3%; selectivity ratio [3]: 447 |
| CN1CCN(C(=O)c2cc(-c3ccc(Cl)cc3Cl)c[nH]2)CC1 | 27.4 (≈ 81 µM) | – | – |
| NNC(=O)c1ccncc1 [ISONIAZID] | 0.04 (≈ 0.292 µM) | – | – |

| SMILES | MIC90 [1] [µg/mL] | IC50 [2] [µg/mL] | other results |
| --- | --- | --- | --- |
| Cc1ccc(-c2c[nH]c(C(=O)NC3C4CC5CC(C4)CC3C5)c2)cn1 (stereo unspecified) | 1 (≈ 2.98 µM) | – | – |
| O=C(NC12CC3CC(CC(C3)C1)C2)c1cc(-c2ccncc2F)c[nH]1 | 0.06 (≈ 0.177 µM) | – | – |
| O=C(NC1C2CC3CC(C2)CC1C3)c1cc(-c2cccnc2Cl)c[nH]1 (stereo unspecified) | 0.28 (≈ 0.787 µM) | > 64 | – |
| O=C(NC1C2CC3CC(C2)CC1C3)c1cc(-c2ccc(Cl)cc2Cl)c[nH]1 (stereo unspecified) | 0.06 (≈ 0.154 µM) | – | inhibition [6]: Dde; MIC90 [7]: 0.25 µg/mL (≈ 0.642 µM); MIC=>90 [8]: >4 µg/mL; inhibition [9]: Dde; MIC90 [10]: 1 µg/mL (≈ 2.57 µM) |
| O=C(NC1CCCCCCC1)c1cc(-c2ccncc2Cl)c[nH]1 | 0.05 (≈ 0.151 µM) | – | – |
| O=C(NC1CCCCCCC1)c1cc(-c2ccc(Cl)cc2Cl)c[nH]1 | 0.23 (≈ 0.63 µM) | – | – |
| O=C(NC1C2CC3CC(C2)CC1C3)c1cc(-c2ccccn2)c[nH]1 (stereo unspecified) | 0.12 (≈ 0.373 µM) | 47.3 (≈ 147 µM) | selectivity ratio [3]: 394 |
| O=C(Nc1ccccc1)c1cc(-c2ccc(Cl)cc2Cl)c[nH]1 | > 32 | – | – |
| O=C(NC1C2CC3CC(C2)CC1C3)c1cc(-c2ccc(F)cc2F)c[nH]1 (stereo unspecified) | < 0.016 | – | Stability [4]: Stable; Stability [5]: 61.4%; selectivity ratio [3]: 900 |
| CC1(C)CCC(NC(=O)c2cc3c(Cl)cc(Cl)cc3[nH]2)CC1 | 0.015 (≈ 0.0442 µM) | 10.5 (≈ 30.9 µM) | selectivity ratio [3]: 700 |
| O=C(NC1C2CC3CC(C2)CC1C3)c1cc(-c2ccc(Cl)nc2)c[nH]1 (stereo unspecified) | 0.24 (≈ 0.674 µM) | > 64 | – |
| COc1cc(F)ccc1-c1c[nH]c(C(=O)NC23CC4CC(CC(C4)C2)C3)c1 | < 0.016 | – | Stability [4]: Stable; Stability [5]: 23.3% |
| O=C(NC1CCCCC1)c1cc(-c2ccc(Cl)cc2Cl)c[nH]1 | 6.5 (≈ 19.3 µM) | – | – |
| Nc1ncc(F)cc1-c1c[nH]c(C(=O)NC2C3CC4CC(C3)CC2C4)c1 (stereo unspecified) | 0.44 (≈ 1.24 µM) | 33.9 (≈ 95.6 µM) | selectivity ratio [3]: 77 |
| Cc1ccc(-c2c[nH]c(C(=O)NC3C4CC5CC(C4)CC3C5)c2)c(C)c1 (stereo unspecified) | 0.97 (≈ 2.78 µM) | – | – |
| O=C(NC12CC3CC(CC(C3)C1)C2)c1cc(-c2ccncc2Cl)c[nH]1 | 0.03 (≈ 0.0843 µM) | – | Stability [4]: Stable; Stability [5]: 42.7% |
| O=C(NC1C2CC3CC(C2)CC1C3)c1cc(-c2ccncc2)c[nH]1 (stereo unspecified) | 0.45 (≈ 1.4 µM) | – | selectivity ratio [3]: 99 |
| O=C(NC1CCCCCCC1)c1cc(-c2ccc(F)cc2)c[nH]1 | 0.03 (≈ 0.0954 µM) | – | – |
| O=C(NC1C2CC3CC(C2)CC1C3)c1cc(-c2ccc(Cl)cc2)c[nH]1 (stereo unspecified) | 0.1 (≈ 0.282 µM) | 12.6 (≈ 35.5 µM) | selectivity ratio [3]: 126 |
| CCCNC(=O)c1cc(-c2ccc(Cl)cc2Cl)c[nH]1 | 12.5 (≈ 42.1 µM) | – | – |

| SMILES | MIC90 [1] [µg/mL] | IC50 [2] [µg/mL] | other results |
| --- | --- | --- | --- |
| COc1cc(F)ccc1-c1c[nH]c(C(=O)NC2CCCCCCC2)c1 | < 0.016 | – | Stability [4]: Stable; Stability [5]: 9.03% |
| O=C(NC1C2CC3CC(C2)CC1C3)c1cc(-c2ccccc2F)c[nH]1 (stereo unspecified) | < 0.016 | 12.6 (≈ 37.2 µM) | Stability [4]: Stable; Stability [5]: 0%; selectivity ratio [3]: 1320 |
| O=C(NC1C2CC3CC(C2)CC1C3)c1cc(-c2ccc(F)cc2)c[nH]1 (stereo unspecified) | < 0.016 | 12.6 (≈ 37.2 µM) | Stability [4]: Stable; Stability [5]: 70.4%; selectivity ratio [3]: 788 |
| O=C(NC1C2CC3CC(C2)CC1C3)c1cc(-c2ccc(F)nc2)c[nH]1 (stereo unspecified) | 0.09 (≈ 0.265 µM) | – | selectivity ratio [3]: 391 |
| COc1ncccc1-c1c[nH]c(C(=O)NC2C3CC4CC(C3)CC2C4)c1 (stereo unspecified) | < 0.016 | – | Stability [4]: Stable; Stability [5]: 0.63%; selectivity ratio [3]: 737 |
| O=C(NC1C2CC3CC(C2)CC1C3)c1cc(-c2cccnc2F)c[nH]1 (stereo unspecified) | 0.06 (≈ 0.177 µM) | > 64 | Stability [4]: Stable; Stability [5]: 0% |
| O=C(NC1CCCCCCC1)c1cc(-c2ccc(F)cc2F)c[nH]1 | < 0.016 | – | inhibition [6]: Dde; MIC90 [7]: 0.125 µg/mL (≈ 0.376 µM); MIC=>90 [8]: 2 µg/mL (≈ 6.02 µM); inhibition [9]: Dde; MIC90 [10]: 0.25 µg/mL (≈ 0.752 µM) |
| O=C(c1cc(-c2ccc(Cl)cc2Cl)c[nH]1)N1CCOCC1 | 14.7 (≈ 45.2 µM) | – | – |
| O=C(c1cc(-c2ccc(Cl)cc2Cl)c[nH]1)N1CCCCC1 | 7.7 (≈ 23.8 µM) | – | – |
| O=C(NC12CC3CC(CC(C3)C1)C2)c1cc(-c2ccc(Cl)cc2)c[nH]1 | 0.155 (≈ 0.437 µM) | – | – |
| COc1cc(F)ccc1-c1c[nH]c(C(=O)NC2C3CC4CC(C3)CC2C4)c1 (stereo unspecified) | < 0.016 | 22 (≈ 59.7 µM) | selectivity ratio [3]: 1380 |
| O=C(NC1C2CC3CC(C2)CC1C3)c1cc(-c2ccncc2Cl)c[nH]1 (stereo unspecified) | < 0.016 | 58.7 (≈ 165 µM) | Stability [4]: Stable; Stability [5]: 73.4%; selectivity ratio [3]: 3670 |
| COc1ncc(F)cc1-c1c[nH]c(C(=O)NC2C3CC4CC(C3)CC2C4)c1 (stereo unspecified) | 0.016 (≈ 0.0433 µM) | > 64 | Stability [4]: Stable; Stability [5]: 1.97% |
| CN(C(=O)c1cc(-c2ccc(Cl)cc2Cl)cn1C)C1C2CC3CC(C2)CC1C3 (stereo unspecified) | > 32 | – | – |
| COc1ccc(-c2c[nH]c(C(=O)NC3C4CC5CC(C4)CC3C5)c2)c(F)c1 (stereo unspecified) | 0.47 (≈ 1.28 µM) | > 64 | – |
| O=C(NC1C2CC3CC(C2)CC1C3)c1cc(-c2ccccc2Cl)c[nH]1 (stereo unspecified) | 0.24 (≈ 0.676 µM) | > 64 | – |
| O=C(NC1C2CC3CC(C2)CC1C3)c1cc(-c2ccc(C(F)(F)F)cc2C(F)(F)F)c[nH]1 (stereo unspecified) | 1.08 (≈ 2.37 µM) | – | – |
| O=C(NC1CCC(F)(F)CC1)c1cc(-c2ccc(Cl)cc2Cl)c[nH]1 | 6.1 (≈ 16.3 µM) | – | – |

— ChEMBL document CHEMBL5126604, “Design, Synthesis, and Biological Evaluation of Pyrrole-2-carboxamide Derivatives as Mycobacterial Membrane Protein Large 3 Inhibitors for Treating Drug-Resistant Tuberculosis” (J Med Chem, 2022)
